# Laboratory results reported in patent US8889874B2, “Imidazolone-chalcone derivatives as potential anticancer agent and process for the preparation thereof” (Council of Scientific and Industrial Research, priority 2010, dated 2014).
# Legend:
# Test in all cases: NCI anticancer screen, SRB assay, 48 h
# Type in all cases: cell-based, human
# [1] = test system: NCI-H522 (non-small cell lung)
# Procedure: (§1) Some of biological activity studies were carried out at the National Cancer Institute (NCI), Maryland, USA.
# (§2) The compounds were evaluated for anticancer activity against fifty three human cancer cells derived from nine cancer types (leukemia cell line, non-small-cell lung cell line, colon cell line, CNS cell line, melanoma cell line, ovarian cell line, prostate cell line, and breast cancer cell line) as shown in Table 1. For each compound, dose response curves for each cell line were measured at a minimum of five concentrations at 10 fold dilutions. A protocol of 48 h continuous drug exposure was used and a sulforhodamine B (SRB) protein assay was used to estimate cell viability or growth.
# SF-539 (CNS) = test system: SF-539 (CNS)
# Procedure: as §1, §2
# ACHN (renal) = test system: ACHN (renal)
# Procedure: as §1, §2
# [2] = test system: HOP-62 (non-small cell lung)
# Procedure: as §1, §2
# OVCAR-3 (ovarian) = test system: OVCAR-3 (ovarian)
# Procedure: as §1, §2
# SK-OV-3 (ovarian) = test system: SK-OV-3 (ovarian)
# Procedure: as §1, §2
# HCC-2998 (colon) = test system: HCC-2998 (colon)
# Procedure: as §1, §2
# TD-47D (breast) = test system: TD-47D (breast)
# Procedure: as §1, §2
# [3] = test system: K-562 (leukemia cell line)
# Procedure: as §1, §2
# LOX IMVI (melanoma) = test system: LOX IMVI (melanoma)
# Procedure: as §1, §2
# MALME-3M (melanoma) = details: MALME-3M
# Procedure: as §1, §2
# MDA-MB-231/ATCC (breast) = test system: MDA-MB-231/ATCC (breast)
# Procedure: as §1, §2
# SK-MEL-2 (melanoma) = test system: SK-MEL-2 (melanoma)
# Procedure: as §1, §2
# HS 578T (breast) = test system: HS 578T (breast)
# Procedure: as §1, §2
# M14 (melanoma) = test system: M14 (melanoma)
# Procedure: as §1, §2
# [4] = test system: NCI-H460 (non-small cell lung)
# Procedure: as §1, §2
# NCI/ADR-RES (ovarian) = test system: NCI/ADR-RES (ovarian)
# Procedure: as §1, §2
# UACC-62 (melanoma) = test system: UACC-62 (melanoma)
# Procedure: as §1, §2
# BT-549 (breast) = test system: BT-549 (breast)
# Procedure: as §1, §2
# SNB-19 (CNS) = test system: SNB-19 (CNS)
# Procedure: as §1, §2
# HT29 (colon) = test system: HT29 (colon)
# Procedure: as §1, §2
# KM12 (colon) = test system: KM12 (colon)
# Procedure: as §1, §2
# UACC-257 (melanoma) = test system: UACC-257 (melanoma)
# Procedure: as §1, §2
# TK-10 (renal) = test system: TK-10 (renal)
# Procedure: as §1, §2
# HCT-15 (colon) = test system: HCT-15 (colon)
# Procedure: as §1, §2
# [5] = test system: NCI-H23 (non-small cell lung)
# Procedure: as §1, §2
# COLO 205 (colon) = test system: COLO 205 (colon)
# Procedure: as §1, §2
# SN12C (renal) = test system: SN12C (renal)
# Procedure: as §1, §2
# OVCAR-5 (ovarian) = test system: OVCAR-5 (ovarian)
# Procedure: as §1, §2
# SF-268 (CNS) = test system: SF-268 (CNS)
# Procedure: as §1, §2
# OVCAR-8 (ovarian) = test system: OVCAR-8 (ovarian)
# Procedure: as §1, §2
# CAKI-1 (renal) = test system: CAKI-1 (renal)
# Procedure: as §1, §2
# SNB-75 (CNS) = test system: SNB-75 (CNS)
# Procedure: as §1, §2
# [6] = test system: EKVX (non-small cell lung)
# Procedure: as §1, §2
# [7] = 48 h exposure, SRB, read-out: GI50
structure (smiles),measurement,setting,value
"COc1cc(/C=C/C(=O)c2cccc(-n3cc(-c4ccc(Cl)cc4)[nH]c3=O)c2)cc(OC)c1OC [5f, 4-(4-chlorophenyl)-1-3-[(E)-3-(3,4,5-trimethoxyphenyl)-2-propenoyl]phenyl-2,3-dihydro-1H-2-imidazolone]",pGI50 (-log of molar concentration causing 50% inhibition of net cell growth),[1],5.39
same,GI50,[1]; [7],4.1 µM
same,pGI50 (-log of molar concentration causing 50% inhibition of net cell growth),SF-539 (CNS),5.46
same,GI50,SF-539 (CNS); [7],3.49 µM
same,pGI50 (-log of molar concentration causing 50% inhibition of net cell growth),ACHN (renal),5.14
same,GI50,ACHN (renal); [7],7.17 µM
same,pGI50 (-log of molar concentration causing 50% inhibition of net cell growth),[2],4.63
same,pGI50 (-log of molar concentration causing 50% inhibition of net cell growth),OVCAR-3 (ovarian),5.61
same,GI50,OVCAR-3 (ovarian); [7],2400 nM
same,pGI50 (-log of molar concentration causing 50% inhibition of net cell growth),SK-OV-3 (ovarian),4.50
same,GI50,SK-OV-3 (ovarian); [7],31.4 µM
same,pGI50 (-log of molar concentration causing 50% inhibition of net cell growth),HCC-2998 (colon),5.61
same,GI50,HCC-2998 (colon); [7],2460 nM
same,pGI50 (-log of molar concentration causing 50% inhibition of net cell growth),TD-47D (breast),5.18
same,GI50,TD-47D (breast); [7],6.65 µM
same,pGI50 (-log of molar concentration causing 50% inhibition of net cell growth),[3],5.43
same,GI50,[3]; [7],3.69 µM
same,pGI50 (-log of molar concentration causing 50% inhibition of net cell growth),LOX IMVI (melanoma),5.76
same,GI50,LOX IMVI (melanoma); [7],1720 nM
same,pGI50 (-log of molar concentration causing 50% inhibition of net cell growth),MALME-3M (melanoma),4.74
same,GI50,MALME-3M (melanoma); [7],18.1 µM
same,pGI50 (-log of molar concentration causing 50% inhibition of net cell growth),MDA-MB-231/ATCC (breast),4.86
same,GI50,MDA-MB-231/ATCC (breast); [7],13.8 µM
same,pGI50 (-log of molar concentration causing 50% inhibition of net cell growth),SK-MEL-2 (melanoma),5.46
same,GI50,SK-MEL-2 (melanoma); [7],3.44 µM
same,pGI50 (-log of molar concentration causing 50% inhibition of net cell growth),HS 578T (breast),5.22
same,GI50,HS 578T (breast); [7],5.96 µM
same,pGI50 (-log of molar concentration causing 50% inhibition of net cell growth),M14 (melanoma),5.36
same,GI50,M14 (melanoma); [7],4.36 µM
same,pGI50 (-log of molar concentration causing 50% inhibition of net cell growth),[4],5.43
same,GI50,[4]; [7],3.74 µM
same,pGI50 (-log of molar concentration causing 50% inhibition of net cell growth),NCI/ADR-RES (ovarian); NCI/ADR-RES,5.63
same,GI50,"NCI/ADR-RES (ovarian); NCl/ADR-RES, 48 h exposure, SRB, read-out: GI50",2360 nM
same,pGI50 (-log of molar concentration causing 50% inhibition of net cell growth),UACC-62 (melanoma),5.05
same,GI50,UACC-62 (melanoma); [7],8.88 µM
same,pGI50 (-log of molar concentration causing 50% inhibition of net cell growth),BT-549 (breast),4.91
same,GI50,BT-549 (breast); [7],12.3 µM
same,pGI50 (-log of molar concentration causing 50% inhibition of net cell growth),SNB-19 (CNS),4.79
same,GI50,SNB-19 (CNS); [7],16.1 µM
same,pGI50 (-log of molar concentration causing 50% inhibition of net cell growth),HT29 (colon),5.70
same,GI50,HT29 (colon); [7],2000 nM
same,pGI50 (-log of molar concentration causing 50% inhibition of net cell growth),KM12 (colon),5.26
same,GI50,KM12 (colon); [7],5.45 µM
same,pGI50 (-log of molar concentration causing 50% inhibition of net cell growth),UACC-257 (melanoma),4.76
same,GI50,UACC-257 (melanoma); [7],17.4 µM
same,pGI50 (-log of molar concentration causing 50% inhibition of net cell growth),TK-10 (renal),5.19
same,GI50,TK-10 (renal); [7],6.46 µM
same,pGI50 (-log of molar concentration causing 50% inhibition of net cell growth),HCT-15 (colon),5.41
same,GI50,HCT-15 (colon); [7],3.85 µM
same,pGI50 (-log of molar concentration causing 50% inhibition of net cell growth),[5],5.45
same,GI50,[5]; [7],3.56 µM
same,pGI50 (-log of molar concentration causing 50% inhibition of net cell growth),COLO 205 (colon); COLO205,5.13
same,GI50,"COLO 205 (colon); COLO 205, 48 h exposure, SRB, read-out: GI50",7.38 µM
same,pGI50 (-log of molar concentration causing 50% inhibition of net cell growth),SN12C (renal); SN 12C,5.29
same,GI50,"SN12C (renal); SN12C, 48 h exposure, SRB, read-out: GI50",5.14 µM
same,pGI50 (-log of molar concentration causing 50% inhibition of net cell growth),OVCAR-5 (ovarian),5.51
same,GI50,OVCAR-5 (ovarian); [7],3.11 µM
same,pGI50 (-log of molar concentration causing 50% inhibition of net cell growth),SF-268 (CNS),5.29
same,GI50,SF-268 (CNS); [7],5.07 µM
same,pGI50 (-log of molar concentration causing 50% inhibition of net cell growth),OVCAR-8 (ovarian),5.41
same,GI50,OVCAR-8 (ovarian); [7],3.85 µM
same,pGI50 (-log of molar concentration causing 50% inhibition of net cell growth),CAKI-1 (renal),4.81
same,pGI50 (-log of molar concentration causing 50% inhibition of net cell growth),SNB-75 (CNS),4.69
same,pGI50 (-log of molar concentration causing 50% inhibition of net cell growth),[6],4.62
